ChEMBL document CHEMBL5696441 (Nat Chem Biol, 2011)

Experiments:
[1] = molecular target: RAC-alpha serine/threonine-protein kinase (Homo sapiens) (UniProt P31749); assay: Inhibition of AKT1 (unknown origin) assessed as remaining activity at 1 uM by Kinome scan method relative to control
[2] = molecular target: Cyclin-dependent kinase-like 3 (Homo sapiens) (UniProt Q8IVW4); assay: Inhibition of CDKL3 (unknown origin) assessed as remaining activity at 1 uM by Kinome scan method relative to control
[3] = system: Epidermal growth factor receptor (Homo sapiens), P00533 [G719C]; assay: Inhibition of EGFR G719C mutant (unknown origin) assessed as remaining activity at 1 uM by Kinome scan method relative to control
[4] = molecular target: Receptor-type tyrosine-protein kinase FLT3 (Homo sapiens) (UniProt P36888); assay: Inhibition of FLT3 (unknown origin) assessed as remaining activity at 1 uM by Kinome scan method relative to control
[5] = molecular target: Mitogen-activated protein kinase kinase kinase 11 (Homo sapiens) (UniProt Q16584); assay: Inhibition of MLK3 (unknown origin) assessed as remaining activity at 1 uM by Kinome scan method relative to control
[6] = molecular target: Receptor-interacting serine/threonine-protein kinase 2 (Homo sapiens) (UniProt O43353); assay: Inhibition of RIPK2 (unknown origin) assessed as remaining activity at 1 uM by Kinome scan method relative to control
[7] = molecular target: Activated CDC42 kinase 1 (Homo sapiens) (UniProt Q07912); assay: Inhibition of human ACK1 assessed as residual activity at 1 uM using PolyEY as substrate in presence of 33P-ATP by ProQinase assay relative to control
[8] = molecular target: Casein kinase I isoform gamma-2 (Homo sapiens) (UniProt P78368); assay: Inhibition of human CK1gamma2 assessed as residual activity at 1 uM using casein as substrate in presence of 33P-ATP by ProQinase assay relative to control
[9] = molecular target: Dual specificity tyrosine-phosphorylation-regulated kinase 3 (Homo sapiens) (UniProt O43781); assay: Inhibition of human DYRK3 assessed as residual activity at 1 uM using RBER-IRStide as substrate in presence of 33P-ATP by ProQinase assay relative to control
[10] = molecular target: T1, Ephrin type-A receptor 1 (Homo sapiens) (UniProt P21709); assay: Inhibition of human EPHA1 assessed as residual activity at 1 uM using polyEY as substrate in presence of 33P-ATP by ProQinase assay relative to control
T1 sequence (whole entry): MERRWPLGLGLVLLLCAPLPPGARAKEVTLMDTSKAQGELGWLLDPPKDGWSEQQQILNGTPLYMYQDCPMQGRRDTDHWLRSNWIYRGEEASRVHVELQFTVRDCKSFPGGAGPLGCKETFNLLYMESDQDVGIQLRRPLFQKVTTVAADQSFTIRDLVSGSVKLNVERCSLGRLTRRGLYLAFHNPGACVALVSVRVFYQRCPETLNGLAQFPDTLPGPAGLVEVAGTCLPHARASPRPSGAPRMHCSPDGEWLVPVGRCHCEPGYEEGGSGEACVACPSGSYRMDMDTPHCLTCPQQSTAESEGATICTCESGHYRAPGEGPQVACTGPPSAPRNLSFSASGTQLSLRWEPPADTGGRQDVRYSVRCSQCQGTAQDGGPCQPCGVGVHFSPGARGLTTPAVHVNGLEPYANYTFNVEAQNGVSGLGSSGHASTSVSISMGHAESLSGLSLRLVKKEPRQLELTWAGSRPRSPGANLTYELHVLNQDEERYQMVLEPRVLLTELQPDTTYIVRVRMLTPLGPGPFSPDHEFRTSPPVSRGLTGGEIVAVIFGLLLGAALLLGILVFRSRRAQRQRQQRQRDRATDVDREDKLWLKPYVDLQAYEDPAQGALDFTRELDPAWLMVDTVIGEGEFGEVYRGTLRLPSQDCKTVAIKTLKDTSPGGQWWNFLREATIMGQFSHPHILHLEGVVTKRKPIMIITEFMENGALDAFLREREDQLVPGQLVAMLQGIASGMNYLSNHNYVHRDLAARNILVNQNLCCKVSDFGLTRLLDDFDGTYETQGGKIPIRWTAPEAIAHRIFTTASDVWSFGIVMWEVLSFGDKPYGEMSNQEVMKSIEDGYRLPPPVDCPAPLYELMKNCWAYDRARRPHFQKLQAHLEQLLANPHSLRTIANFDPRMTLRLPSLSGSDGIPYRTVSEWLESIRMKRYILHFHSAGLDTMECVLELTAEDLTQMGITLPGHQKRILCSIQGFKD

[11] = molecular target: Ephrin type-A receptor 5 (Homo sapiens) (UniProt P54756); assay: Inhibition of human EPHA5 assessed as residual activity at 1 uM using polyEY as substrate in presence of 33P-ATP by ProQinase assay relative to control
[12] = system: Fibroblast growth factor receptor 1 (Homo sapiens), P11362 [V561M]; assay: Inhibition of human FGFR1 V561M mutant assessed as residual activity at 1 uM using Poly(Ala,Glu,Lys,Tyr)6:2:5:1 as substrate in presence of 33P-ATP by ProQinase assay relative to control
[13] = molecular target: Tyrosine-protein kinase HCK (Homo sapiens) (UniProt P08631); assay: Inhibition of human HCK assessed as residual activity at 1 uM using polyEY as substrate in presence of 33P-ATP by ProQinase assay relative to control
[14] = molecular target: Mitogen-activated protein kinase kinase kinase kinase 4 (Homo sapiens) (UniProt O95819); assay: Inhibition of human MAP4K4 assessed as residual activity at 1 uM using casein as substrate in presence of 33P-ATP by ProQinase assay relative to control
[15] = molecular target: Serine/threonine-protein kinase pim-3 (Homo sapiens) (UniProt Q86V86); assay: Inhibition of human PIM3 assessed as residual activity at 1 uM using RBER-GSK3(14-27) as substrate in presence of 33P-ATP by ProQinase assay relative to control
[16] = molecular target: Ribosomal protein S6 kinase alpha-3 (Homo sapiens) (UniProt P51812); assay: Inhibition of human RPS6KA3 assessed as residual activity at 1 uM using bio-4xCHKT as substrate in presence of 33P-ATP by ProQinase assay relative to control
[17] = molecular target: STE20-like serine/threonine-protein kinase (Homo sapiens) (UniProt Q9H2G2); assay: Inhibition of human SLK assessed as residual activity at 1 uM using RB-S6P as substrate in presence of 33P-ATP by ProQinase assay relative to control
[18] = molecular target: TGF-beta receptor type-2 (Homo sapiens) (UniProt P37173); assay: Inhibition of human TGFBR2 assessed as residual activity at 1 uM using RB-S6P as substrate in presence of 33P-ATP by ProQinase assay relative to control
[19] = Anti-inflammatory activity against human derived high respond PBMC cells assessed as inhibition in stimulated IL-8 cytokine release incubated for 2 hrs in the presence of LPS/SEB/aCD28 by Luminex based sandwich immunoassay; format: functional, cell-based

Sequence of Cyclin-dependent kinase-like 3 (Homo sapiens) (Q8IVW4 whole entry, looked up): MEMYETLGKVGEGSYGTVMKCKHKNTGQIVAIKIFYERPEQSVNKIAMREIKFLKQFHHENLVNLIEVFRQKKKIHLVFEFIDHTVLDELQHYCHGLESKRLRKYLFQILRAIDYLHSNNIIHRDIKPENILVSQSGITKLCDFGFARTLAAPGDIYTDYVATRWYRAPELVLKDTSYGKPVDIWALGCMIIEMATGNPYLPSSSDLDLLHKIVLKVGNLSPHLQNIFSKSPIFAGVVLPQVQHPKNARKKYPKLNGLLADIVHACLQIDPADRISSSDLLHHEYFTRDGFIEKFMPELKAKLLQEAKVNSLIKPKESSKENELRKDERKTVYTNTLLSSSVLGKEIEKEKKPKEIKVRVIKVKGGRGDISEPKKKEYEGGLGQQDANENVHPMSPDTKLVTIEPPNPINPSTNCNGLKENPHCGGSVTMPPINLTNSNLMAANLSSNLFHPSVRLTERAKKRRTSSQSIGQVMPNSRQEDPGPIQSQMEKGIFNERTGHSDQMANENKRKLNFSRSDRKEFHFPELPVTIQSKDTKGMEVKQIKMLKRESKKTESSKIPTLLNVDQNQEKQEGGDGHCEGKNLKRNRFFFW
Sequence of Tyrosine-protein kinase HCK (Homo sapiens) (P08631 2-526 limits assumed): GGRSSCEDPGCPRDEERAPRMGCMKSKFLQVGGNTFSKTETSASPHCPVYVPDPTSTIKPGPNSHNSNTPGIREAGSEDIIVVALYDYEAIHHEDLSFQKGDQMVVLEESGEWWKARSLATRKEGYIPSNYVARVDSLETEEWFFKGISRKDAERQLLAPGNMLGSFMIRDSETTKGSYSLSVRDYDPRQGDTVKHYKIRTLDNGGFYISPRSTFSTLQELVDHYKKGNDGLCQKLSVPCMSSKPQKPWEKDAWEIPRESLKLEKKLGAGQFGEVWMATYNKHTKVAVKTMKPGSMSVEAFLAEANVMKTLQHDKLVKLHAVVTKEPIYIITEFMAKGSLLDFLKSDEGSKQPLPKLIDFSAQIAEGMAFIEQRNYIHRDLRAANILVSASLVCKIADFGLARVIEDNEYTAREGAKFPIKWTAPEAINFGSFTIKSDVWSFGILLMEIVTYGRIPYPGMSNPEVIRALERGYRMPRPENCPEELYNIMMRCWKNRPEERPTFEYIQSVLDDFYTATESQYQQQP
Sequence of Ribosomal protein S6 kinase alpha-3 (Homo sapiens) (P51812 whole entry): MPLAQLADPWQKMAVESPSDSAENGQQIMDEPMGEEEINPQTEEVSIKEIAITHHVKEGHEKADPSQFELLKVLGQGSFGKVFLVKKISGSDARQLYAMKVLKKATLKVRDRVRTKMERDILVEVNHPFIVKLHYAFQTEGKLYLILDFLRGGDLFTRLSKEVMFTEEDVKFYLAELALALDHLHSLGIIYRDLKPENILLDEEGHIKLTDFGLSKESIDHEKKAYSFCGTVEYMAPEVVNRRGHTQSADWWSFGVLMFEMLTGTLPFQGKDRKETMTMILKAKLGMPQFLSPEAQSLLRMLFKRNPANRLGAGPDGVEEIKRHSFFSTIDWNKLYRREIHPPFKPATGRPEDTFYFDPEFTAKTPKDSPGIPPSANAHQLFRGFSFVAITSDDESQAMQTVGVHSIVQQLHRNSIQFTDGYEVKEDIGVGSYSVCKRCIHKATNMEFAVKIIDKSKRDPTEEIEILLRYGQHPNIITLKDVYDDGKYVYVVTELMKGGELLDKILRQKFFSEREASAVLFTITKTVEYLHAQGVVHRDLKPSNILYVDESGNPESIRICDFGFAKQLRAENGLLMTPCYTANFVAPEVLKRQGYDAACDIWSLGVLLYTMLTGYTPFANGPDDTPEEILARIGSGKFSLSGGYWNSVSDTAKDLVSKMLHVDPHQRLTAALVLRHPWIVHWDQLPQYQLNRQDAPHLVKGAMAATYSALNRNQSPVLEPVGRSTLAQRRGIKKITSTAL
Sequence of Receptor-interacting serine/threonine-protein kinase 2 (Homo sapiens) (O43353 whole entry): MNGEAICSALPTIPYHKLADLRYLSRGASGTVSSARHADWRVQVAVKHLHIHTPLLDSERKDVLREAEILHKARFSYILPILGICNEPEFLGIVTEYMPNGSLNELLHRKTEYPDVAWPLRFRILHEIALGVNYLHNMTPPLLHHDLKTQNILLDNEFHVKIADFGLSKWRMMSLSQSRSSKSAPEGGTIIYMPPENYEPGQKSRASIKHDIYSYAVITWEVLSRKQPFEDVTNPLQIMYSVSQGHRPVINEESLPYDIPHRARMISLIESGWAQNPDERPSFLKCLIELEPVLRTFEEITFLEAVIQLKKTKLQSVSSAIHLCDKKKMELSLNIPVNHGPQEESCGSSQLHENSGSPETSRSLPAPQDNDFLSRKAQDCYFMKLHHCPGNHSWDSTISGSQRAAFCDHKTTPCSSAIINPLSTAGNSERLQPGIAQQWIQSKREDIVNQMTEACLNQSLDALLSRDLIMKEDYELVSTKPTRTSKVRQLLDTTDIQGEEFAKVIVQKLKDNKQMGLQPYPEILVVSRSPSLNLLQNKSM
Sequence of Mitogen-activated protein kinase kinase kinase kinase 4 (Homo sapiens) (O95819 2-1239 limits assumed): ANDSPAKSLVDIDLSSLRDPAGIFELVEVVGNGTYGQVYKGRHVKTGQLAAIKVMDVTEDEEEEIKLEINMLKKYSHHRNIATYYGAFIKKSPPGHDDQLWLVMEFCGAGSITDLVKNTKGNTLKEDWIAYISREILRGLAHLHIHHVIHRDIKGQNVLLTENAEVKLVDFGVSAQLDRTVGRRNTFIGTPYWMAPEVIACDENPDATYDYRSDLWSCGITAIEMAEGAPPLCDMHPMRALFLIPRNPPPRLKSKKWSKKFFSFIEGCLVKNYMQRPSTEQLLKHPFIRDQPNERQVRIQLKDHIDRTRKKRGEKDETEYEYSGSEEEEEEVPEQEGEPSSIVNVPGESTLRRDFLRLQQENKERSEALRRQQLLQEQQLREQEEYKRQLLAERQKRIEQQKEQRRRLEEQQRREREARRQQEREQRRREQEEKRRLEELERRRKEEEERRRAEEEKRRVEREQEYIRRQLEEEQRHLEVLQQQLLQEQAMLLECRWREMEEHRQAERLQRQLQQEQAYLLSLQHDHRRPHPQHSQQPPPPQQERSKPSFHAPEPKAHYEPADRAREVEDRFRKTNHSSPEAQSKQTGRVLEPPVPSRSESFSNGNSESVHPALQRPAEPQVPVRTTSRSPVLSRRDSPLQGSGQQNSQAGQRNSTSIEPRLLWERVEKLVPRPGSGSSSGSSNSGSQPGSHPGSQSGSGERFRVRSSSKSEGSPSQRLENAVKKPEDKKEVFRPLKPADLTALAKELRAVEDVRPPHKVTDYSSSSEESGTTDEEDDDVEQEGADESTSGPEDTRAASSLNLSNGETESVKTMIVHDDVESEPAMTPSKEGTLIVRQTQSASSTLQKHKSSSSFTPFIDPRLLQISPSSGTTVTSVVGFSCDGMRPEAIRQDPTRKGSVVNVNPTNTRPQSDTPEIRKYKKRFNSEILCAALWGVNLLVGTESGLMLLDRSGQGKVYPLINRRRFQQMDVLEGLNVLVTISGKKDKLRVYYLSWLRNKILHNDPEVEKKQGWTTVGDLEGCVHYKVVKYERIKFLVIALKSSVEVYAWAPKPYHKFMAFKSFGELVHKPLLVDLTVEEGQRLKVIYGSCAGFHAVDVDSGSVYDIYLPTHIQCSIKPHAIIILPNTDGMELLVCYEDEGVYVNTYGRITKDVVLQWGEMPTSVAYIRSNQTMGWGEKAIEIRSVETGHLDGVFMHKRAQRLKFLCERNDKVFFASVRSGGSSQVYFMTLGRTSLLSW
Sequence of Receptor-type tyrosine-protein kinase FLT3 (Homo sapiens) (P36888 whole entry): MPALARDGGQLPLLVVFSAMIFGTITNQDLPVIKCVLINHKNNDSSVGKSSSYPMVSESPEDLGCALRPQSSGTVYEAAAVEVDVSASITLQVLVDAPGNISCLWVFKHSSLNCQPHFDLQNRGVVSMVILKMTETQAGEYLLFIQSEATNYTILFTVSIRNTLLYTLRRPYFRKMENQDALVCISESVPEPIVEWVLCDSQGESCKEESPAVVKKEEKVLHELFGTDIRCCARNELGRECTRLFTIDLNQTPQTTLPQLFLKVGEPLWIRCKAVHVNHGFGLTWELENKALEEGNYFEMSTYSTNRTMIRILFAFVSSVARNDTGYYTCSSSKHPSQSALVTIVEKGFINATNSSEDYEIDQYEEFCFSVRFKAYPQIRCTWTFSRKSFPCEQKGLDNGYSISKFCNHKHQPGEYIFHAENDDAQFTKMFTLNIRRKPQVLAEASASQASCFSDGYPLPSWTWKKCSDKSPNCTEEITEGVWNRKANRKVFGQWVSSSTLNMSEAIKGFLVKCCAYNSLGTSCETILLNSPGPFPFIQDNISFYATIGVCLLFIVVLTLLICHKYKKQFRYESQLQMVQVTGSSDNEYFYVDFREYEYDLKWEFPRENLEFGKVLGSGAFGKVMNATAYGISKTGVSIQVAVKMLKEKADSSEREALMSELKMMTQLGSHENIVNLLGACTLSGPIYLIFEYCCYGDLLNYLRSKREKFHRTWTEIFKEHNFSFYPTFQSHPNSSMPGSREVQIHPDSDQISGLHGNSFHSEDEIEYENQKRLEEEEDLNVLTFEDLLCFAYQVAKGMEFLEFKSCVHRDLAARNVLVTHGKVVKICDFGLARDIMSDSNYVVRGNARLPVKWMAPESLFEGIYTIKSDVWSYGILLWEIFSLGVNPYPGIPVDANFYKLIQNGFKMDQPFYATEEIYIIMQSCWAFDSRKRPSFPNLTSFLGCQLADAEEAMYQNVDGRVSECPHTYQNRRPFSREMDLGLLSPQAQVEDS

In the case of `O=C1c2ccc(Nc3ccc(F)cc3F)cc2CCc2ccc(OC[C@H](O)CO)cc21` [Skepinone-L], the Activity [1] is reported as 100%, the Activity [2] is reported as 78% and the Activity [3] is reported as 81%. It also gave an Activity [4] of 97%, an Activity [5] of 96% and an Activity [6] of 87%. It also gave an Activity [7] of 108%, an Activity [8] of 98% and an Activity [9] of 98%. It also gave an Activity [10] of 115%, an Activity [11] of 132% and an Activity [12] of 89%. It also gave an Activity [13] of 98%, an Activity [14] of 79% and an Activity [15] of 78%. The Activity [16] was 89%, the Activity [17] was 39% and the Activity [18] was 77%. For the same compound, the IC50 [19] was 90 nM.
